Laboratory results reported in US4738979A, “α2 -blocking derivatives of imidazole” (G. D. Searle & Co., priority 1985, dated 1988).

Assays:
[1] = test system: α2 adrenergic receptors of the central nervous system; assay: inhibition of the antihypertensive action of clonidine in spontaneously hypertensive rats (SHR); format: in vivo, rat; conditions: 1 mg/kg p.o., clonidine 50 μg/kg s.c.
Method: In the first study, carried out upon unanaesthetized spontaneously hypertensive rats (SHR rats), the ability of the compounds of the present invention to inhibit the antihypertensive action of clonidine was determined.
The antihypertensive activity of clonidine results from an interaction with α2 adrenergic receptors of the central nervous system, i.e., central antihypertensive actions.
In this test, two groups of SHR rats are utilized as follows. In the first group, prior to subcutaneous administration of clonidine (50 μg/kg), the SHR rats are treated with the compound to be tested (1 mg/kg p.o.) dissolved in a saline vehicle. The second group (control group) of SHR rats are treated with the saline vehicle only, prior to subcutaneous administration of clonidine.
The arterial pressure is measured in the region of the median coccygeal artery according to the method of J. Roba, A. F. DeSchaepdrijver, Exp. Anim., 4, 147-162 (1971).
The results of this assay summarized in Table II, column 5, are expressed as a percentage of inhibition of the effect of clonidine.

α2 -adrenergic receptors [2] = biological target: T1, α2 -adrenergic receptors (Cavia porcellus, UniProt Q60474); assay: α2 antagonist and α2 agonist activity in isolated guinea pig ileum (clonidine)
T1 construct: from tissue; host or cells: isolated guinea pig ileum
T1 sequence (Q60474 1-464): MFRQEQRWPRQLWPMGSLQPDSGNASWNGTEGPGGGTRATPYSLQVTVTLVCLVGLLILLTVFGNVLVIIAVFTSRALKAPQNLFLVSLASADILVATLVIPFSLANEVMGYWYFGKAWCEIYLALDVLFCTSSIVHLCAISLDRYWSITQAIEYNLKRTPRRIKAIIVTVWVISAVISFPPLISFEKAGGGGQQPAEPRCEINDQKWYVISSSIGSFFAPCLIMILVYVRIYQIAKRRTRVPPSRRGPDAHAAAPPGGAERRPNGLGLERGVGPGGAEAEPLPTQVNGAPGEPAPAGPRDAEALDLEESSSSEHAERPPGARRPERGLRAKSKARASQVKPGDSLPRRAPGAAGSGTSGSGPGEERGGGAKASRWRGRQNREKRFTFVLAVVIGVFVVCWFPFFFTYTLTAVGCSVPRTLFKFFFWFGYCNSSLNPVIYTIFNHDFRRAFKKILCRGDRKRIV
Method: The α2 antagonist and α2 agonist activity of the compounds according to the invention was determined upon isolated organs according to a model described by G. M. Drews, Br. J. Pharmaco., 64, 293-300 (1978).
This model is based upon the principle that the stimulation of the cholinergic nervous transmissions of the guinea pig ileum causes the liberation of acetyl choline, which in turn causes contractions of the ileum.
The stimulation of the α2 -adrenergic receptors inhibits the activity of the cholinergic nerve and consequently reduces all response resulting from a timulation of the latter. Thus the contractions of the ileum induced by electric stimulation of the tissue are inhibited by clonidine, an α2 agonist, in proportion to the dose. This inhibition is specifically displaced by the α2 antagonists and not by the α1 antagonists.
The method utilized can be summarized as follows: three dose-response curves to clonidine are established at an interval of 60 minutes. Two concentrations of the product to be tested are added successively 10 minutes before the realization of the second and third clonidine curves. Next, after washing, a dose-response curve is established with the product to be tested.
The dose-response curves are calculated as a percentage of the maximum inhibition obtained for the first curve. In this system the products having an α2 antagonist activity displace the dose-response curve to clonidine. The α2 antagonist activity, expressed in pA2 value, shown in column 4, is calculated according to J. M. Van Rossum, Arch. Int. Pharmacodyn., 143, 299-300 (1963).
A reduction of the contractions induced by the tested product alone indicates an α2 agonist effect. This activity is expressed in--log ED50 (the--logarithm of the concentration of the product giving 50% of the maximum inhibition obtained with clonidine).
The higher the pA2 value, the higher the α2 antagonist activity; the higher the--log ED50 value (i.e., the pA2 agonist activity), the higher the α2 agonist activity.

α2 -adrenergic receptors [3] = biological target: T2, α2 -adrenergic receptors (Rattus norvegicus, UniProt P22909); assay: binding to α2-adrenergic receptors on rat brain homogenates (3H-p. aminoclonidine); conditions: 10^-7 M; rat brain homogenates; 0.7 nM 3H-p. aminoclonidine; read-out: % Inhibition of the Specific Binding at 10^-7 M for α2 Recep.
T2 construct: from tissue; host or cells: rat brain homogenates
T2 sequence (P22909 1-465): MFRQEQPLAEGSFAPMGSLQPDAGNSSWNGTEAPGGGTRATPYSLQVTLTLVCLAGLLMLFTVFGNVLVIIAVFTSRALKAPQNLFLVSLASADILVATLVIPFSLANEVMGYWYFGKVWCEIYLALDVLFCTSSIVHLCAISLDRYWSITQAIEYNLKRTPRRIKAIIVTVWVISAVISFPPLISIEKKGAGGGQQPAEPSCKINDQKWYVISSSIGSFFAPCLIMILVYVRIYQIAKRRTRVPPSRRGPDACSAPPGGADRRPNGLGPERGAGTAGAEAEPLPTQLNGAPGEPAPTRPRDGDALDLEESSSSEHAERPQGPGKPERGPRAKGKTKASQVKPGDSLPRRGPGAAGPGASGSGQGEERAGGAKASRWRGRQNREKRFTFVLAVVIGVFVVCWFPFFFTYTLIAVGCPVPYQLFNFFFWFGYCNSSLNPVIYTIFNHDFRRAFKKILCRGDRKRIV
Method: (§1) The activity of the compounds according to the invention with respect to binding of the α-adrenergic receptors was determined in vitro according to a method deriving from the works of B. R. Rouot et al., Life Sci., 25, 769 (1979) and of D. U'Prichard et al., Mol. Pharmacol., 13, 454 (1977). This method consists in measuring the binding to the receptor on rat brain homogenates, by marking by means of a specific tritriated ligand placed in competition with the product to be tested.
(§2) In the presenct case the binding to the α1 -adrenergic receptors was measured by means of 1.6 nM of ^3 H-WB 4101 and the binding to the α2 -adrenergic receptors by means of 0.7 nM of ^3 H-p. aminoclonidine, the non-specific binding being determined by 1,000 nM of phentolamine. The results are given in Table II, column 3, and are expressed in terms of percentage of inhibition of the specific binding of 10^-7 molar compound concentration.
(§3) (2) The specific binding is the total binding less the nonspecific
(§4) binding. The total binding is the binding in the absence of nonradioactiv
(§5) drug. The nonspecific binding is the binding in the presence of 1,000 nM
(§6) of phentolamine. The products of the invention are tested at a
(§7) concentration of 10^-7 molar.

[4] = test system: bicuculline-induced tonic extension in mice; assay: protection against bicuculline-induced tonic extension in mice; format: in vivo; conditions: Mus musculus, iv, 3 hours prior to bicuculline 0.7 mg/kg i.v., read-out: Anticonvulsive effect (versus Bicuculline) (% Protection)
Method: In the second study the anti-convulsant effect of the compounds of the present invention was examined in two seizure models; bicuculline-induced tonic extension in mice and 3-mercaptopropionic acid (3-MPA)-induced tonic extension in mice.
In the bicuculline study, the ability of the compounds of the present invention to protect against tonic extension (involving rigidity) was evaluated as follows. Each test compound was administered to a group of ten mice at a dose of 10 mg/kg, 3 hours prior to the i.v. administration of bicuculline (0.7 mg/kg). Anticonvulsant activity in this test is expressed as percentage of animals tested. The results are given in Table II, column 6, and indicate that several compounds display significant anticonvulsive activity in this test. The anticonvulsant effect of the compounds has also been tested with respect to the tonic extension induced by 3-mercaptopropionic acid (120 mg/kg subcutaneously) in mice.

α1 -adrenergic receptors = assay: binding to α1-adrenergic receptors on rat brain homogenates (3H-WB 4101); conditions: 1.6 nM 3H-WB 4101
Method: as §1, §2, §3, §4, §5, §6, §7

[5] = acute toxicity after oral administration to mice (LD50); conditions: mouse, in vivo, 15 days mortality
Method: The acute toxicity of the compounds of the present invention was studied after oral administration to mice. The products to be tested, suspended in a 1% tragacanth gum mucilage, were administered by means of an intragastric probe to groups of three male mice which had fasted since the preceding day. The doses tested are a function of the effect observed and can vary from 3,000 to 3 mg/kg or less. The mortality was recorded for 15 days. The lethal dose for 50% of the animals (LD50) was calculated according to the method of J. Litchfield and F. Wilcoxon, J. Pharmacol. Exp. Ther., 96, 99 (1949) and expressed in mg/kg. The effect of the products on the behaviour of the animals is observed until 5 to 6 hours after the treatment indicated above and after 24 hours, using a method derived from that of S. Irwin, described by R. A. Turner, Screening Methods in Pharmacology, Chapter 3, pages 22-34, Academic Press, 1965. If anomalies are noted, the observation is prolonged and smaller doses are tested.

| SMILES | α2 Antagonist (% Inhibition of the Antihypertension of Clonidine) [1] [%] | EC50 (α2 -adrenergic receptors [2]; 50% of maximum inhibition obtained with clonidine, read-out: α2 Agonist Activity (-log ED50) (converted)) [µM] | Kb (α2 -adrenergic receptors [2]; versus clonidine, read-out: α2 Antagonist Activity (pA2) (converted)) [µM] | inhibition at 0.1 µM (α2 -adrenergic receptors [3]) [%] | responders at 10 mg/kg [4] [%] | % Inhibition of the Specific Binding at 10^-7 M for α1 Recep. (α1 -adrenergic receptors) [%] | LD50 at 360 h [5] [mg/kg] |
| --- | --- | --- | --- | --- | --- | --- | --- |
| CC(=C(c1ccccc1)c1ccccc1)c1c[nH]cn1 [Compound 2, 4(5)-[(2,2-diphenyl-1-methyl)ethenyl]imidazole] | 71 | 2.51 | 0.0501 | 43 | 20 | 3 |  |
| OC(c1c[nH]cn1)C(c1ccccc1)c1ccccc1 (stereo not shown) [Compound 5] | 24 |  |  | 2 | 30 | 3 | > 300 |
| COC(c1c[nH]cn1)C(c1ccccc1)c1ccccc1 (stereo not shown) [Compound 6] | 62 |  |  | 0 | 30 | 0 |  |
| c1ccc(C(Cc2c[nH]cn2)(c2ccccc2)c2ccccc2)cc1 [Compound 8] | 28 |  |  | 0 | 20 | 0 | 1.75 |
| C(=C(c1ccccc1)c1ccccc1)c1c[nH]cn1 [Compound 11] | 48 |  |  | 9 | 40 | 6 |  |
| CCCC(=C(c1ccccc1)c1ccccc1)c1c[nH]cn1 [Compound 18, 4(5)-[(2,2-diphenyl-1-n.propyl)-ethenyl]-imidazole] | 47 |  |  | 0 | 50 | 0 | 270 |
| CCCC(c1c[nH]cn1)C(c1ccccc1)c1ccccc1 (stereo not shown) [Compound 19, 4(5)-[2-(1,1-diphenyl)pentyl]imidazole] | 75 |  |  | 15 | 40 | 4 | 350 |
| CCCC(OC)(c1c[nH]cn1)C(c1ccccc1)c1ccccc1 (stereo not shown) [Compound 20, 4(5)-[2-(1,1-diphenyl-2-methoxy)-pentyl]imidazole] | 62 |  |  | 6 | 60 | 0 | > 300 |
| Cc1nc(CC(c2ccccc2)c2ccccc2)c[nH]1 [Compound 25, 4(5)-(2,2-diphenylethyl)-2-methylimidazole] | 87 |  |  | 3 | 10 | 0 |  |
| COC(c1c[nH]c(C)n1)C(c1ccccc1)c1ccccc1 (stereo not shown) [Compound 26] |  |  |  | 2 | 10 | 1 | 350 |
| O=C(O)c1ccccc1C(Cc1c[nH]cn1)c1ccccc1 (stereo not shown) [Compound 30] |  |  |  | 1 |  | 12 | > 300 |
| COC(=O)c1ccccc1C(Cc1c[nH]cn1)c1ccccc1 (stereo not shown) [Compound 31] |  |  |  | 20 |  | 13 |  |
